Target: T1, Human CGRP Receptor (Homo sapiens, UniProt O60894+Q16602)
T1 construct: Crude membranes were prepared from SK-N-MC cells expressing CGRP receptors; endogenous in cells; host or cells: SK-N-MC cells (crude membranes)
Experiment: Radioligand binding assay, [125I]-CGRP displacement on SK-N-MC membranes
Conditions: displacement of [125I]-CGRP (18 pM final), 2 h room temperature
Protocol: Tissue Culture. SK-N-MC cells were grown at 37° C. in 5% CO2 as a monolayer in medium consisting of MEM with Earle's salts and L-glutamine (Invitrogen) supplemented with 10% fetal bovine serum (Invitrogen).
Membrane Preparation. Crude membranes were prepared from SK-N-MC cells expressing CGRP receptors. The cells were rinsed twice with phosphate-buffered saline (155 mM NaCl, 3.3 mM Na2HPO4, 1.1 mM KH2PO4, pH 7.4), and incubated for 5-10 min. at 4° C. in hypotonic lysis buffer consisting of 10 mM Tris (pH 7.4) and 5 mM EDTA. The cells were transferred from plates to polypropylene tubes (16×100 mm) and homogenized using a polytron. Homogenates were centrifuged at 32,000×g for 30 min. The pellets were resuspended in cold hypotonic lysis buffer with 0.1% mammalian protease inhibitor cocktail (Sigma) and assayed for protein concentration. The SK-N-MC homogenate was aliquoted and stored at −80° C. Radioligand Binding Assay. The compounds of invention were solubilized and carried through serial dilutions using 100% DMSO. Aliquots from the compound serial dilutions were further diluted 25 fold into assay buffer (50 mM Tris-Cl pH 7.5, 5 mM MgCl2, 0.005% Triton X-100) and transferred (volume 50 μl) into 96 well assay plates. [^125I]-CGRP (GE Healthcare or Perkin-Elmer) was diluted to 72 pM in assay buffer and a volume of 50 μl was added to each well. SK-N-MC membranes were thawed, diluted in assay buffer with fresh 0.1% mammalian protease inhibitor cocktail (Sigma), and re-homogenized. SK-N-MC homogenate (7 μg/well) was added in a volume of 100 μl. The assay plates were then incubated at room temperature for 2 h. Assays were stopped by addition of excess cold wash buffer (50 mM Tris-Cl pH 7.5, 0.1% BSA) immediately followed by filtration over glass fiber filters (Whatman GF/B) previously soaked in 0.5% PEI. Non-specific binding was defined with 1 μM beta-CGRP (Bachem). Protein bound radioactivity was determined using a gamma or scintillation counter. The resulting data was analyzed using a four parameter competitive binding equation (XLfit v2.0) and the IC50 was defined as the concentration of a compound of invention required to displace 50% of radioligand binding. Final assay concentration of [^125I]-CGRP was 18 pM. […] All compounds of invention were evaluated in at least two separate experiments.

T1 sequence (Q16602 23-461): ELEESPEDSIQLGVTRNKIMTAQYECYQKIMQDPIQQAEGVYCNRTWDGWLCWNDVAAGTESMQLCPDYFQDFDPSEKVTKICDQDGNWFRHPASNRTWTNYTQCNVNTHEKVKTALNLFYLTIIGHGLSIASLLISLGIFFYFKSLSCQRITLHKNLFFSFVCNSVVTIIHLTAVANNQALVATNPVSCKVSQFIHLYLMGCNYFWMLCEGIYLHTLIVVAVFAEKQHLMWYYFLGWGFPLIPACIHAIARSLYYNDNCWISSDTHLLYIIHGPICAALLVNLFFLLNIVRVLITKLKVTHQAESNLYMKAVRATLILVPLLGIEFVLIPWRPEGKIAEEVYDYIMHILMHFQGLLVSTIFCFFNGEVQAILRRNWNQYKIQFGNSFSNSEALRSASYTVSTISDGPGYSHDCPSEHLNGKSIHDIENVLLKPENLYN
T1 sequence (O60894 27-148): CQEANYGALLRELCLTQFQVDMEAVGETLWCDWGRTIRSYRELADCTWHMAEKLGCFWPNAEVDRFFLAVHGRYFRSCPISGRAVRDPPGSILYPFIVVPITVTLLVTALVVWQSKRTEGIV

Compound | IC50
O=C(O[C@@H]1CC[C@@H](c2cc(F)ccc2F)Cc2cccnc21)N1CCC(n2c(=O)[nH]c3ncccc32)CC1 (racemic) [Example 11, (6,9-trans)-6-(2,5-Difluorophenyl)-6,7,8,9-tetrahydro-5H-cyclohepta[b]pyridin-9-yl 4-(2-oxo-2,3-dihydro-1H-imidazo[4,5-b]pyridin-1-yl)piperidine-1-carboxylate] | 4.14 nM
O=C(O[C@@H]1CC[C@@H](c2cccc(F)c2F)Cc2cccnc21)N1CCC(n2c(=O)[nH]c3ncccc32)CC1 (relative stereo) [Example 2] | 0.23 nM
O=C(O[C@@H]1CC[C@@H](c2cccc(F)c2F)Cc2cccnc21)N1CCC(N2CCc3ccccc3NC2=O)CC1 (relative stereo) [Example 3, (6,9-anti)-6-(2,3-difluorophenyl)-6,7,8,9-tetrahydro-5H-cyclohepta[b]pyridin-9-yl 4-(2-oxo-4,5-dihydro-1H-benzo[d][1,3]diazepin-3(2H)-yl)piperidine-1-carboxylate] | 1.25 nM
N#Cc1ccc2c(n1)[C@H](OC(=O)N1CCC(n3c(=O)[nH]c4ncccc43)CC1)CC[C@@H](c1cccc(F)c1F)C2 (relative stereo) [Example 4, (6,9-trans)-2-cyano-6-(2,3-difluorophenyl)-6,7,8,9-tetrahydro-5H-cyclohepta[b]pyridin-9-yl 4-(2-oxo-2,3-dihydro-1H-imidazo[4,5-b]pyridin-1-yl)piperidine-1-carboxylate] | 0.44 nM
O=C(C[C@@H]1CC[C@H](c2cccc(F)c2F)Cc2cccnc21)N1CCC(n2c(=O)[nH]c3ncccc32)CC1 (relative stereo) [Example 5, 1-(1-(2-((6,9-Cis)-6-(2,3-difluorophenyl)-6,7,8,9-tetrahydro-5H-cyclohepta[b]pyridin-9-yl)acetyl)piperidin-4-yl)-1H-imidazo[4,5-b]pyridin-2(3H)-one] | 4.04 nM
O=C(O[C@@H]1CC[C@@H](c2ccccc2)Cc2cccnc21)N1CCC(n2c(=O)[nH]c3ncccc32)CC1 (relative stereo) [Example 10, (6,9-Trans)-6-Phenyl-6,7,8,9-tetrahydro-5H-cyclohepta[b]pyridin-9-yl 4-(2-oxo-2,3-dihydro-1H-imidazo[4,5-b]pyridin-1-yl)piperidine-1-carboxylate] | 8.89 nM
O=C(O[C@@H]1CC[C@@H](c2ccc(F)c(F)c2)Cc2cccnc21)N1CCC(n2c(=O)[nH]c3ncccc32)CC1 (relative stereo) [Example 12, (6,9-Trans)-6-(3,4-Difluorophenyl)-6,7,8,9-tetrahydro-5H-cyclohepta[b]pyridin-9-yl 4-(2-oxo-2,3-dihydro-1H-imidazo[4,5-b]pyridin-1-yl)piperidine-1-carboxylate] | 7.41 nM
O=C(C[C@@H]1CC[C@@H](c2cccc(F)c2F)Cc2cccnc21)N1CCC(n2c(=O)[nH]c3ncccc32)CC1 (single isomer, unassigned) [Example 6] | 0.89 nM
O=C(C[C@H]1CC[C@H](c2cccc(F)c2F)Cc2cccnc21)N1CCC(n2c(=O)[nH]c3ncccc32)CC1 (single isomer, unassigned) [Example 7] | > 100 nM
O=C(N[C@@H]1CC[C@@H](c2cccc(F)c2F)Cc2cccnc21)N1CCC(n2c(=O)[nH]c3ncccc32)CC1 (single isomer, unassigned) [Example 8] | 1.6 nM
O=C1CCC(c2cccc(F)c2F)CCC1OC(=O)N1CCC(n2c(=O)[nH]c3ncccc32)CC1 (centres unmarked) [Example 1, 5-(2,3-difluorophenyl)-2-oxocycloheptyl 4-(2-oxo-2,3-dihydro-1H-imidazo[4,5-b]pyridin-1-yl)piperidine-1-carboxylate] | 2.86 nM
O=C(N[C@H]1CC[C@H](c2cccc(F)c2F)Cc2cccnc21)N1CCC(n2c(=O)[nH]c3ncccc32)CC1 [Example 9, N-((6S,9S)-6-(2,3-difluorophenyl)-6,7,8,9-tetrahydro-5H-cyclohepta[b]pyridin-9-yl)-4-(2-oxo-2,3-dihydro-1H-imidazo[4,5-b]pyridin-1-yl)piperidine-1-carboxamide] | > 1000 nM
Nc1cnc2c(c1)C[C@H](c1cccc(F)c1F)CC[C@H]2NC(=O)N1CCC(n2c(=O)[nH]c3ncccc32)CC1 [Example 14, N-((6R,9R)-3-amino-6-(2,3-difluorophenyl)-6,7,8,9-tetrahydro-5H-cyclohepta[b]pyridin-9-yl)-4-(2-oxo-2,3-dihydro-1H-imidazo[4,5-b]pyridin-1-yl)piperidine-1-carboxamide] | 0.25 nM
CN(C)c1cnc2c(c1)C[C@H](c1cccc(F)c1F)CC[C@H]2OC(=O)N1CCC(n2c(=O)[nH]c3ncccc32)CC1 [Example 15, (6R,9R)-6-(2,3-difluorophenyl)-3-(dimethylamino)-6,7,8,9-tetrahydro-5H-cyclohepta[b]pyridin-9-yl 4-(2-oxo-2,3-dihydro-1H-imidazo[4,5-b]pyridin-1-yl)piperidine-1-carboxylate] | 0.98 nM
CC(C)(C)Nc1ccc2c(n1)[C@H](OC(=O)N1CCC(n3c(=O)[nH]c4ncccc43)CC1)CC[C@@H](c1cccc(F)c1F)C2 [Example 16, (6R,9R)-2-(tert-Butylamino)-6-(2,3-difluorophenyl)-6,7,8,9-tetrahydro-5H-cyclohepta[b]pyridin-9-yl 4-(2-oxo-2,3-dihydro-1H-imidazo[4,5-b]pyridin-1-yl)piperidine-1-carboxylate] | 6.96 nM
Nc1ccc2c(n1)[C@H](OC(=O)N1CCC(n3c(=O)[nH]c4ncccc43)CC1)CC[C@@H](c1cccc(F)c1F)C2 [Example 17, (6R,9R)-2-Amino-6-(2,3-difluorophenyl)-6,7,8,9-tetrahydro-5H-cyclohepta[b]pyridin-9-yl 4-(2-oxo-2,3-dihydro-1H-imidazo[4,5-b]pyridin-1-yl)piperidine-1-carboxylate] | 0.8 nM
CN(C)c1ccc2c(n1)[C@H](OC(=O)N1CCC(n3c(=O)[nH]c4ncccc43)CC1)CC[C@@H](c1cccc(F)c1F)C2 [Example 18, (6R,9R)-6-(2,3-difluorophenyl)-2-(dimethylamino)-6,7,8,9-tetrahydro-5H-cyclohepta[b]pyridin-9-yl 4-(2-oxo-2,3-dihydro-1H-imidazo[4,5-b]pyridin-1-yl)piperidine-1-carboxylate] | 0.78 nM
O=C(O[C@@H]1CC[C@@H](c2cccc(F)c2F)Cc2ccc(Cl)nc21)N1CCC(n2c(=O)[nH]c3ncccc32)CC1 [Example 19, (6R,9R)-2-Chloro-6-(2,3-difluorophenyl)-6,7,8,9-tetrahydro-5H-cyclohepta[b]pyridin-9-yl 4-(2-oxo-2,3-dihydro-1H-imidazo[4,5-b]pyridin-1-yl)piperidine-1-carboxylate] | 0.76 nM
O=C(O[C@@H]1CC[C@@H](c2cccc(F)c2F)Cc2cccnc21)N1CCC(n2c(=O)[nH]c3ncccc32)CC1 [Example 21] | 0.12 nM
(6,9-Trans)-6-(2,3-difluorophenyl)-6,7,8,9-tetrahydro-5H-cyclohepta[b]pyridin-9-yl 2-oxo-1,2-dihydrospiro[benzo[d][1,3]oxazine-4,4′-piperidine]-1′-carboxylate [Example 13] | 1.55 nM

From patent US8143403B2 (Bristol-Myers Squibb Company, priority 2008, dated 2012)
